Several values for one entry are separate records, joined by “and”; a condition that tells them apart may be missing. Equal values may be shown once. Inconclusive results and toxic doses are left out. Where a SMILES comes first, the peptide text is derived from it. [ ]: non-standard residue; d: D form. The star is where a group is joined. Nle = CCCC[CH](N)C(=O)O; Cbz = O=C(OCc1ccccc1)*

Results on 22 molecules are retold here after PubChem BioAssay AID200 (DTP/NCI, 2004).

The assay has as its system B6C3F1 mice, B16 melanoma ip, median survival T/C. The assay is described as follows: NCI In Vivo Anticancer Drug Screen. Data for tumor model B16 Melanoma (intraperitoneal) in B6C3F1 mice. Conditions: endpoint: median survival time, higher = longer survival. The procedure, abridged:
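Values are T/C ratios: the measurement in treated animals divided by that in vehicle-treated controls, using survival or tumor size in mice carrying transplantable tumors.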

Where [1] appears, read: dose: 25.0 mg/kg/injection, schedule: Q01DX009 (ip), vehicle: saline with Tween-80.
Where [2] appears, read: dose: 50.0 mg/kg/injection, schedule: Q01DX009 (ip), vehicle: saline with Tween-80.
[3] abbreviates: dose: 100.0 mg/kg/injection, schedule: Q01DX009 (ip), vehicle: saline with Tween-80.
Where [4] appears, read: dose: 200.0 mg/kg/injection, schedule: Q01DX009 (ip), vehicle: saline with Tween-80.
Where [5] appears, read: dose: 12.5 mg/kg/injection, schedule: Q01DX009 (ip), vehicle: saline with Tween-80.
[6] abbreviates: dose: 400.0 mg/kg/injection, schedule: Q01DX009 (ip), vehicle: saline with Tween-80.
Where [7] appears, read: dose: 400.0 mg/kg/injection, schedule: Q01DX009 (ip), vehicle: Klucel (hydroxypropylcellulose) (HPC).
The mark [8] stands for this setting: dose: 12.5 mg/kg/injection, schedule: Q01DX009 (ip), vehicle: Klucel (hydroxypropylcellulose) (HPC).
The mark [9] stands for this setting: dose: 25.0 mg/kg/injection, schedule: Q01DX009 (ip), vehicle: Klucel (hydroxypropylcellulose) (HPC).
Where [10] appears, read: dose: 50.0 mg/kg/injection, schedule: Q01DX009 (ip), vehicle: Klucel (hydroxypropylcellulose) (HPC).
Where [11] appears, read: dose: 100.0 mg/kg/injection, schedule: Q01DX009 (ip), vehicle: Klucel (hydroxypropylcellulose) (HPC).
Setting [12] is: dose: 200.0 mg/kg/injection, schedule: Q01DX009 (ip), vehicle: Klucel (hydroxypropylcellulose) (HPC).
The mark [13] stands for this setting: dose: 25.0 mg/kg/injection, schedule: Q01DX009 (ip), vehicle: saline.
Where [14] appears, read: dose: 50.0 mg/kg/injection, schedule: Q01DX009 (ip), vehicle: saline.
Setting [15] is: dose: 100.0 mg/kg/injection, schedule: Q01DX009 (ip), vehicle: saline.
The mark [16] stands for this setting: dose: 200.0 mg/kg/injection, schedule: Q01DX009 (ip), vehicle: saline.
Setting [17] is: dose: 6.25 mg/kg/injection, schedule: Q01DX009 (ip), vehicle: Klucel (hydroxypropylcellulose) (HPC).
Where [18] appears, read: dose: 400.0 mg/kg/injection, schedule: Q01DX009 (ip), vehicle: saline.
[19] abbreviates: dose: 6.25 mg/kg/injection, schedule: Q01DX009 (ip), vehicle: saline with Tween-80.

As for `CN(C)[C@@H]1C(=O)C(C(=O)NCN2CCN(C(=N)N=C(N)N)CC2)=C(O)[C@@]2(O)C(=O)C3=C(O)c4c(O)cccc4[C@@](C)(O)[C@H]3C[C@@H]12`, the T/C by setting is: (dose: 0.31 mg/kg/injection, schedule: Q01DX009 (ip), vehicle: saline) 94 % of control; (dose: 0.62 mg/kg/injection, schedule: Q01DX009 (ip), vehicle: saline) 98 % of control; (dose: 1.25 mg/kg/injection, schedule: Q01DX009 (ip), vehicle: saline) 111 % of control and 103 % of control; (dose: 2.5 mg/kg/injection, schedule: Q01DX009 (ip), vehicle: saline) 90 % of control and 103 % of control; (dose: 5.0 mg/kg/injection, schedule: Q01DX009 (ip), vehicle: saline) 101 % of control and 103 % of control.
Consider `COc1ccc(C(C)c2cc3c(cc2OC)OCO3)cc1` (stereo unspecified), for which the T/C reads like this: under setting [1], 99 % of control; under setting [2], 99 % of control; under setting [3], 100 % of control; under setting [4], 104 % of control.
Take `CC(Cc1ccc(O)cc1)NCC(O)c1ccc(O)c(O)c1` (stereo unspecified): the T/C under setting [5] was 97 % of control; the T/C under setting [1] is 92 % of control; the T/C under setting [2] was 100 % of control; the T/C under setting [3] is 101 % of control; the T/C under setting [4] is 101 % of control; the T/C under setting [6] was 111 % of control.
With `Cc1ccc(NCC2(/N=C/c3ccccc3)OC(CO)C(O)C2O)cc1` (stereo unspecified), the T/C under setting [7] was 161 % of control.
Take `OC(CN1CCCC2CCCCC21)c1cc2ccccc2c2ccccc12` (stereo unspecified): the T/C reads like this: under setting [1], 100 % of control; under setting [2], 100 % of control; under setting [3], 96 % of control and 97 % of control.
In the case of `COc1ccc2ccccc2c1C1NC(=O)c2ccccc2N1` (stereo unspecified), the T/C under setting [8] was 96 % of control; the T/C under setting [9] was 100 % of control; the T/C under setting [10] is 96 % of control; the T/C under setting [11] was 100 % of control; the T/C under setting [12] was 104 % of control; the T/C under setting [7] is 102 % of control.
For `CC1Nc2ccccc2NC1C` (stereo unspecified), the T/C under setting [1] is 108 % of control, the T/C under setting [2] is 98 % of control and the T/C under setting [3] was 96 % of control.
On to `CCCCC(NC(=O)OCc1ccccc1)C(=O)NC(C(=O)O)C(C)C` (stereo unspecified) (Cbz-[Nle]-Val-OH; configuration not given here), for which the T/C by setting is: under setting [11], 108 % of control; under setting [12], 105 % of control.
Turning to `O=C(C1CO1)C(Cl)(Cl)Cl` (stereo unspecified), the T/C runs as follows: (dose: 12.0 mg/kg/injection, schedule: Q01DX009 (ip), vehicle: saline) 92 % of control; under setting [13], 106 % of control.
Regarding `CC(C)C(NC(=O)OCC1c2ccccc2-c2ccccc21)C(=O)O` (stereo unspecified), the T/C is 91 % of control under setting [11] and 91 % of control under setting [12].
In the case of `COc1cc(C2c3cc4c(cc3[C@@H](OC3OC5CO[C@@H](C)OC5C(O)C3O)[C@H]3COC(=O)C23)OCO4)cc(OC)c1OC` (stereo partly specified), the T/C (dose: 21.6 mg/kg/injection, schedule: Q01DX009 (ip), vehicle: suspension in saline) was 120 % of control; the T/C under setting [13] is 150 % of control; the T/C under setting [14] is 160 % of control; the T/C (dose: 60.0 mg/kg/injection, schedule: Q01DX009 (ip), vehicle: suspension in saline) was 162 % of control; the T/C under setting [15] is 193 % of control; the T/C (dose: 100.0 mg/kg/injection, schedule: Q01DX009 (ip), vehicle: suspension in saline) is 183 % of control.
Regarding `COC(=O)c1[nH]c(=O)[nH]c(=O)c1F`, the T/C is, setting by setting: under setting [14], 98 % of control; under setting [15], 94 % of control; under setting [16], 100 % of control.
On to `CC(=O)OC1=NC(C)c2c1cc(OC(C)=O)[nH]c2=O` (stereo unspecified), for which the T/C runs as follows: under setting [17], 116 % of control and 105 % of control; under setting [8], 110 % of control and 98 % of control; under setting [9], 113 % of control and 100 % of control; under setting [10], 90 % of control and 101 % of control; under setting [11], 88 % of control.
As for `CC(O)C(NC(=O)OC(C)(C)C)C(=O)ON1C(=O)CCC1=O` (stereo unspecified), the T/C was 98 % of control under setting [2], 96 % of control under setting [3] and 91 % of control under setting [4].
On to `NC(CS)C(=O)O` (stereo unspecified), for which the T/C by setting is: under setting [14], 93 % of control and 104 % of control; under setting [3], 107 % of control; under setting [15], 93 % of control and 103 % of control; under setting [4], 109 % of control; under setting [16], 93 % of control; under setting [6], 107 % of control. Also, the T/C runs as follows: under setting [18], 116 % of control and 92 % of control; (dose: 800.0 mg/kg/injection, schedule: Q01DX009 (ip), vehicle: saline with Tween-80) 100 % of control.
For the molecule `CC(C)(O)[C@H]1[C@@H]2OC(=O)[C@H]1[C@]1(O)C[C@H]3OC34C(=O)O[C@H]2[C@@]41C` (stereo partly specified) (tested in a mixture with another compound), the T/C reads like this: (dose: 0.25 mg/kg/injection, schedule: Q01DX009 (ip), vehicle: Klucel (hydroxypropylcellulose) (HPC)) 110 % of control; (dose: 0.5 mg/kg/injection, schedule: Q01DX009 (ip), vehicle: Klucel (hydroxypropylcellulose) (HPC)) 99 % of control; (dose: 1.0 mg/kg/injection, schedule: Q01DX009 (ip), vehicle: Klucel (hydroxypropylcellulose) (HPC)) 108 % of control; (dose: 2.0 mg/kg/injection, schedule: Q01DX009 (ip), vehicle: Klucel (hydroxypropylcellulose) (HPC)) 111 % of control.
Consider `NC(=O)c1ncn2c(=O)n(CCCl)nnc12`, for which the T/C was 123 % of control (dose: 3.13 mg/kg/injection, schedule: Q01DX009 (ip), vehicle: suspension in saline); 225 % of control (dose: 12.5 mg/kg/injection, schedule: Q01DX009 (ip), vehicle: suspension in saline); 209 % of control (dose: 25.0 mg/kg/injection, schedule: Q01DX009 (ip), vehicle: suspension in saline).
As for `NNC(=S)N/N=C/c1ccc([N+](=O)[O-])s1`, the T/C (dose: 0.78 mg/kg/injection, schedule: Q01DX009 (ip), vehicle: Klucel (hydroxypropylcellulose) (HPC)) was 105 % of control; the T/C (dose: 1.56 mg/kg/injection, schedule: Q01DX009 (ip), vehicle: Klucel (hydroxypropylcellulose) (HPC)) is 99 % of control; the T/C (dose: 3.12 mg/kg/injection, schedule: Q01DX009 (ip), vehicle: Klucel (hydroxypropylcellulose) (HPC)) is 104 % of control; the T/C under setting [17] was 104 % of control.
On to `COc1ccc(S(=O)(=O)N/N=C/C(=O)O)cc1`, for which the T/C is 101 % of control and 104 % of control under setting [19]; 116 % of control and 120 % of control under setting [5]; 119 % of control under setting [2].
In the case of `C[C@H](N)C(=O)N[C@@H]1[C@H]2C(=C(O)C[C@@H](O)[C@@H]2O)C(=O)O[C@@H]1C`, the T/C is, setting by setting: under setting [14], 101 % of control; (dose: 75.0 mg/kg/injection, schedule: Q01DX009 (ip), vehicle: saline with Tween-80) 111 % of control; under setting [15], 98 % of control; (dose: 150.0 mg/kg/injection, schedule: Q01DX009 (ip), vehicle: saline with Tween-80) 120 % of control; under setting [16], 111 % of control; (dose: 300.0 mg/kg/injection, schedule: Q01DX009 (ip), vehicle: saline with Tween-80) 117 % of control. In addition, the T/C runs as follows: under setting [18], 103 % of control; (dose: 1200.0 mg/kg/injection, schedule: Q01DX009 (ip), vehicle: saline with Tween-80) 113 % of control.
As for `CSc1ccc2c(c1)C(N1CCN(C)CC1)Cc1ccccc1S2` (stereo unspecified), the T/C (dose: 1.56 mg/kg/injection, schedule: Q01DX009 (ip), vehicle: saline with Tween-80) was 105 % of control; the T/C (dose: 3.12 mg/kg/injection, schedule: Q01DX009 (ip), vehicle: saline with Tween-80) is 108 % of control; the T/C under setting [19] is 105 % of control; the T/C under setting [5] is 98 % of control; the T/C under setting [1] is 94 % of control; the T/C under setting [2] was 88 % of control.
Consider `C=C(C)/C([O-])=N/[N+](C)(C)CC(O)CCCCCCCCCCCC` (stereo unspecified), for which the T/C is 109 % of control (dose: 25.0 mg/kg/injection, schedule: Q01DX001 (ip), vehicle: saline); 114 % of control and 116 % of control (dose: 50.0 mg/kg/injection, schedule: Q01DX001 (ip), vehicle: saline); 114 % of control and 90 % of control (dose: 100.0 mg/kg/injection, schedule: Q01DX001 (ip), vehicle: saline); 86 % of control (dose: 200.0 mg/kg/injection, schedule: Q01DX001 (ip), vehicle: saline).
